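Each compound was tested at five concentrations against cells in 96-well plates for 48 hours. TGI: concentration producing complete growth inhibition.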
What was measured:
Experiment in all cases: growth of human tumour cells (NCI), 48 h
SN12C renal = system: SN12C renal
NCI-H522 lung = system: NCI-H522 lung
SK-MEL-2 melanoma = system: SK-MEL-2 melanoma
A498 renal = system: A498 renal
HOP-62 NSCLC = system: HOP-62 NSCLC
UACC-257 melanoma = system: UACC-257 melanoma
NCI-H460 lung = system: NCI-H460 lung
PC-3 prostate = system: PC-3 prostate
TK-10 renal = system: TK-10 renal
OVCAR-3 ovarian = system: OVCAR-3 ovarian
SK-OV-3 ovarian = system: SK-OV-3 ovarian
DU-145 prostate = system: DU-145 prostate
SW-620 colon = system: SW-620 colon
SK-MEL-28 melanoma = system: SK-MEL-28 melanoma
T-47D breast = system: T-47D breast
MCF7 breast = system: MCF7 breast
RXF 393 renal = system: RXF 393 renal
MDA-N = system: MDA-N
RPMI-8226 leukemia = system: RPMI-8226 leukemia

Structure (SMILES)	TGI (SN12C renal)	TGI (NCI-H522 lung)	TGI (SK-MEL-2 melanoma)	TGI (A498 renal)	TGI (HOP-62 NSCLC)	TGI (UACC-257 melanoma)	TGI (NCI-H460 lung)	TGI (PC-3 prostate)	TGI (TK-10 renal)	TGI (OVCAR-3 ovarian)	TGI (SK-OV-3 ovarian)	TGI (DU-145 prostate)	TGI (SW-620 colon)	TGI (SK-MEL-28 melanoma)	TGI (T-47D breast)	TGI (MCF7 breast)	TGI (RXF 393 renal)	TGI (MDA-N)	TGI (RPMI-8226 leukemia)
Cc1cc(C)c2c(n1)S(=O)(=O)N(CCCN1CCN(c3cccc(Cl)c3)CC1)/C(=C(\O)c1ccc(Br)cc1)C2=O	53.2 µM	> 100 µM	69.4 µM	> 100 µM	> 100 µM	45.3 µM	33.2 µM	> 100 µM	60.8 µM	94.7 µM	> 100 µM	> 100 µM	> 100 µM	> 100 µM	> 100 µM	> 100 µM	83.7 µM		
COC(=O)C(=O)C(C(=O)OC)C(=O)C(=O)Nc1c(Cl)cc([N+](=O)[O-])cc1Cl (centres undefined)	> 100 µM	> 100 µM	> 100 µM	> 100 µM	> 100 µM	> 100 µM	> 100 µM	> 100 µM	> 100 µM	> 100 µM	> 100 µM		> 100 µM	> 100 µM	> 100 µM	> 100 µM	> 100 µM	> 100 µM	> 100 µM
O=C(NC1C/C(=N/O)c2c(Br)sc(Br)c21)C(F)(F)F (centres undefined)	56.1 µM	> 100 µM	90.1 µM	57.8 µM		72.3 µM	97.2 µM	45.6 µM	> 100 µM	> 100 µM	> 100 µM	> 100 µM	> 100 µM		> 100 µM	> 100 µM	> 100 µM	> 100 µM	
O=S(=O)(/N=C(\NO)Nc1ccc(Cl)cc1)c1cc2ccccc2s1	33 µM	27.2 µM	30.4 µM		34.8 µM	49.9 µM	> 100 µM	27.7 µM	41.1 µM	32.4 µM	34.7 µM	49.2 µM	82 µM	39.6 µM	84.2 µM		36 µM	36.6 µM	
O=C(CC(C(=O)c1cccs1)c1ccsc1)c1ccc(Cl)s1 (centres undefined)	> 100 µM		> 100 µM	> 100 µM	> 100 µM	> 100 µM	> 100 µM	> 100 µM	> 100 µM		> 100 µM	> 100 µM	> 100 µM	> 100 µM	> 100 µM	> 100 µM			> 100 µM
C=C(C)CCC1C=[N+]([O-])OC(C)(C)C1(C)C (centres undefined)	> 100 µM	> 100 µM		> 100 µM	> 100 µM	> 100 µM	> 100 µM		> 100 µM	> 100 µM	> 100 µM	> 100 µM	> 100 µM		> 100 µM	> 100 µM	> 100 µM	> 100 µM	> 100 µM
COc1ccc(C2=NNC(=O)c3ccccc3N2c2nc(-c3cccs3)nc3cc(OC)c(OC)cc23)cc1	11.1 µM	88 µM	44.2 µM	10.5 µM	17 µM	88.2 µM	> 100 µM	> 100 µM	21 µM	9.24 µM	> 100 µM	> 100 µM	> 100 µM	5 µM	17.6 µM	9 µM			> 100 µM
O=C(O)c1nn(-c2ccccc2)nc1-c1nn(-c2ccccc2)nc1C(=O)O	> 100 µM		> 100 µM		> 100 µM	> 100 µM	> 100 µM	> 100 µM	> 100 µM	> 100 µM	> 100 µM	> 100 µM	> 100 µM	> 100 µM	> 100 µM	> 100 µM	> 100 µM	> 100 µM	> 100 µM
CCNC(=S)NNC(=O)c1ccccc1Nc1ccccc1C(=O)NNC(=S)NCC	> 100 µM	> 100 µM	> 100 µM		> 100 µM		> 100 µM	> 100 µM	> 100 µM	> 100 µM	> 100 µM	> 100 µM	> 100 µM	> 100 µM	> 100 µM	> 100 µM		> 100 µM	> 100 µM
CC#CCCCC1(C)CCNC1=S (centres undefined)	> 10 µM	> 10 µM	> 10 µM			> 10 µM	> 10 µM	> 10 µM	> 10 µM	> 10 µM	> 10 µM	> 10 µM	> 10 µM			> 10 µM	> 10 µM	> 10 µM	
CCSc1nc(N/N=C/c2cccs2)c2cnn(CO)c2n1	30.6 µM	15.5 µM	24.4 µM	9.53 µM	14.9 µM	26.4 µM	18.6 µM	21.4 µM	21.9 µM	19 µM	29.4 µM	24.3 µM	24.2 µM	29.3 µM	18.5 µM	14.4 µM	13.9 µM		
CC[C@]12C=CCN3CC[C@@]4(c5cc(Br)c(OC)cc5N(C)[C@H]4[C@@](O)(C(=O)NC(Cc4c[nH]c5ccccc45)C(=O)OC)[C@@H]1O)[C@@H]32 (some centres undefined)	> 100 µM	> 100 µM	> 100 µM		> 100 µM			> 100 µM		> 100 µM	> 100 µM	> 100 µM	> 100 µM	> 100 µM	> 100 µM	> 100 µM	98.6 µM	> 100 µM	46.3 µM
O=c1/c(=C/c2ccccn2)sc2nc3cc4c(cc3n12)OCCO4	> 100 µM	> 100 µM	> 100 µM	> 100 µM	> 100 µM	> 100 µM	> 100 µM	> 100 µM	> 100 µM	> 100 µM	> 100 µM	> 100 µM	> 100 µM	> 100 µM	> 100 µM		> 100 µM	> 100 µM	> 100 µM
Cc1cc(C)n(-c2nc(C)c(CCO)c(=O)[nH]2)n1	> 100 µM	> 100 µM			> 100 µM	> 100 µM	> 100 µM	> 100 µM	> 100 µM	> 100 µM	> 100 µM	> 100 µM	> 100 µM	> 100 µM	> 100 µM	> 100 µM	> 100 µM	> 100 µM	> 100 µM
O=c1[nH]cnc2c1cnn2Cc1cnnn1COCCO	> 100 µM	> 100 µM	> 100 µM	> 100 µM	> 100 µM	> 100 µM	> 100 µM	> 100 µM	> 100 µM	> 100 µM	> 100 µM	> 100 µM	> 100 µM	> 100 µM	> 100 µM	> 100 µM	> 100 µM		
COc1ccc(-c2cc(-c3ccc(Nc4ccnc5cc(Cl)ccc45)cc3)[nH]c(=O)c2C#N)cc1		> 100 µM	> 100 µM	> 100 µM	> 100 µM		> 100 µM	> 100 µM	> 100 µM	> 100 µM	> 100 µM	> 100 µM	> 100 µM	> 100 µM	> 100 µM	> 100 µM	> 100 µM		> 100 µM
COC(=O)C1(Cc2ccccc2)Cc2cc3c(cc2C1O)CCC3 (centres undefined)	33.3 µM	34.4 µM		40.2 µM	36.9 µM	42.9 µM	> 100 µM	37.3 µM	67.2 µM	31.7 µM	36 µM	70.8 µM	30 µM	32.4 µM	62.9 µM		32.5 µM	34.6 µM	54.9 µM
Nc1ccn(C2CCC(COP(=O)(O)OCC(O)COP(=O)(O)OCC3OC(n4cc(F)c(=O)[nH]c4=O)CC3O)O2)c(=O)n1 (centres undefined)	> 100 µM	> 100 µM	> 100 µM		> 100 µM	> 100 µM	> 100 µM	> 100 µM	> 100 µM	> 100 µM	> 100 µM	> 100 µM	> 100 µM	> 100 µM	> 100 µM	> 100 µM	> 100 µM	> 100 µM	> 100 µM
COC(=O)c1ccccc1C1CN=NC12Cc1ccc3c(c1C2=O)CCC3 (centres undefined)	> 100 µM	54.7 µM	> 100 µM	> 100 µM	> 100 µM	> 100 µM	> 100 µM	> 100 µM	> 100 µM	> 100 µM	> 100 µM	> 100 µM	> 100 µM	> 100 µM	> 100 µM	> 100 µM	> 100 µM	> 100 µM	
CSc1nc(NCc2ccccc2)c2cnn(COCCO)c2n1	> 100 µM	> 100 µM	> 100 µM		> 100 µM	64 µM	> 100 µM	> 100 µM	> 100 µM	> 100 µM	> 100 µM	> 100 µM	> 100 µM		> 100 µM	> 100 µM	> 100 µM	> 100 µM	> 100 µM
CC(C)(C)OC(=O)N1N=CCC1c1ccccc1 (centres undefined)	> 100 µM	> 100 µM		> 100 µM	> 100 µM	> 100 µM	> 100 µM		> 100 µM	> 100 µM	> 100 µM	> 100 µM	> 100 µM		> 100 µM	> 100 µM	> 100 µM		> 100 µM
O=C1CC(c2ccccc2)n2c(nc3ccccc32)N1 (centres undefined)		> 100 µM	47.9 µM	> 100 µM	> 100 µM	> 100 µM	> 100 µM	> 100 µM	> 100 µM	> 100 µM	> 100 µM		> 100 µM		> 100 µM	> 100 µM	> 100 µM	> 100 µM	> 100 µM
CC(=O)NC(C)(C)C1CCC(C)CC1 (centres undefined)	> 100 µM			> 100 µM	> 100 µM	> 100 µM	> 100 µM	> 100 µM	> 100 µM	> 100 µM	> 100 µM	> 100 µM	> 100 µM	> 100 µM		> 100 µM	> 100 µM	> 100 µM	> 100 µM
COc1cccc(OC)c1NC(=O)C(=O)Nn1c(NNC(=O)c2ccncc2)nc2ccccc2c1=O	> 100 µM	> 100 µM	> 100 µM	> 100 µM	> 100 µM	> 100 µM	> 100 µM	> 100 µM	> 100 µM	> 100 µM	> 100 µM		> 100 µM	> 100 µM	> 100 µM	> 100 µM	> 100 µM	> 100 µM	> 100 µM
O=C1CN(c2cccc(C(F)(F)F)c2)C(=O)CN1CCN1CC(=O)N(c2cccc(C(F)(F)F)c2)CC1=O	> 100 µM	> 100 µM			> 100 µM	> 100 µM	> 100 µM	> 100 µM	> 100 µM		> 100 µM		> 100 µM	> 100 µM	> 100 µM	> 100 µM		> 100 µM	> 100 µM
O=c1[nH]c2ccc(CC(=S)N3CCOCC3)cc2o1			> 100 µM	> 100 µM	> 100 µM	> 100 µM	> 100 µM	> 100 µM	> 100 µM	> 100 µM	> 100 µM		> 100 µM	> 100 µM		> 100 µM	> 100 µM		
CCN(C(=O)N[C@H](C(=O)N[C@@H](CSC)C(=O)N[C@@H](C)C(=O)OC)C(C)C)c1ccccc1	43.1 µM	22.3 µM	37.8 µM		36.4 µM	25 µM	32.5 µM	31.6 µM	26.4 µM	34.5 µM	30.7 µM	31.2 µM	28 µM	28.7 µM	76.3 µM	31.8 µM	32.2 µM	36.2 µM	
COc1ccc(Nc2nc(N)c(C(=O)c3ccc(Cl)cc3)s2)cc1	22.3 µM	< 0.01 µM	38.6 µM	> 100 µM	17 µM	> 100 µM	4.62 µM	6.61 µM	> 46.3 µM	0.421 µM	20.4 µM	0.0558 µM	> 100 µM	> 100 µM	> 100 µM	> 32.9 µM	0.0323 µM		< 0.01 µM

— PubChem BioAssay (NCI)
